Results: US12195439B1, “C1-substituted isopropylamine fused heterocyclic mescaline derivatives” (Enveric Biosciences Canada Inc., priority 2022, dated 2025)
Where two headings read alike, the source gives them in different places.

Tests used:
[1] = target: T1, 5-HT7 receptor (Homo sapiens, UniProt P34969); experiment: Eurofins Cerep competition binding assay at 5-HT7 receptor; settings: 10 μM test ligand, [3H]LSD, recombinant receptor from HEK-293 cells; for inhibition at 10 µM: read-out: HT7, percent of control-specific binding
T1 construct: host or cells: HEK-293 cells (membrane preparation)

[2] = target: T2, serotonin transporter (SERT) (Homo sapiens, UniProt P31645); experiment: biochemical; type: binding; settings: for inhibition at 10 µM: read-out: SERT, percent of control-specific binding
T2 construct: host or cells: CHO cells (membrane preparation)

[3] = target: T3, alpha2A receptor (Homo sapiens, UniProt P08913); experiment: Eurofins Cerep competition binding assay at alpha2A receptor; settings: 10 μM test ligand, [3H]RX 821002, recombinant receptor from CHO cells; for inhibition at 10 µM: read-out: α-2A, percent of control-specific binding
T3 construct: host or cells: CHO cells (membrane preparation)
T3 sequence (P08913 1-465): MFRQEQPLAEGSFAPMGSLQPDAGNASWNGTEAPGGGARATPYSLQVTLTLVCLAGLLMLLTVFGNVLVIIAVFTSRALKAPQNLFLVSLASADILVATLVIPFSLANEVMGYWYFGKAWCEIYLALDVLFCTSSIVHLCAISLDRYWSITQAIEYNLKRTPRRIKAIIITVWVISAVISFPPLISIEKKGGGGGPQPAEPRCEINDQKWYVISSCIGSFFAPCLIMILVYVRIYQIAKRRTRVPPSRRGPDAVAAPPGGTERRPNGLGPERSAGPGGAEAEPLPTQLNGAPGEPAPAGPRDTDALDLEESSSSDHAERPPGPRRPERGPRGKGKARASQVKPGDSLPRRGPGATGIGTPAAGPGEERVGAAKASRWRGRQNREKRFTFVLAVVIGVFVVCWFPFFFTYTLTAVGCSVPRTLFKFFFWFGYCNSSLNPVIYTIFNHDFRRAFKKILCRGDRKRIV

[4] = target: T4, 5-HT1A receptor (Homo sapiens, UniProt P08908); experiment: 5-HT1A receptor radioligand competition assay (SPA); type: binding; settings: 5-HT1A, Ki, competition with 0.5 nM [3H]8-hydroxy-DPAT, membranes containing 5-HT1A
T4 construct: purchased Perkin Elmer 6110501400UA
T4 sequence (P08908 1-422): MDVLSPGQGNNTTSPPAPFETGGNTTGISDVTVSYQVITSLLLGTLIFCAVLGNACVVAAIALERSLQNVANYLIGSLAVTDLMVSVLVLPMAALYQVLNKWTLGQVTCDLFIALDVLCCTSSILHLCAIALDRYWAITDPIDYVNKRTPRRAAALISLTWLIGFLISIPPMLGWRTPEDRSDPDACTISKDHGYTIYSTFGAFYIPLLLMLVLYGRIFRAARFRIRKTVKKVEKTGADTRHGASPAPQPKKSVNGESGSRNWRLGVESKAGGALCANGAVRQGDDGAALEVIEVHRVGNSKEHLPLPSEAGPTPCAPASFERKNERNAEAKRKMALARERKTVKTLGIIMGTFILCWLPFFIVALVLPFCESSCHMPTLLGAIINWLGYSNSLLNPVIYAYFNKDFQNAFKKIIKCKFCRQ

[5] = target: T5, 5-HT2B receptor (Homo sapiens, UniProt P41595); experiment: Eurofins Cerep competition binding assay at 5-HT2B receptor; settings: 10 μM test ligand, [3H]mesulergine, recombinant receptor from CHO cells; for inhibition at 10 µM: read-out: HT2B, percent of control-specific binding
T5 construct: host or cells: CHO cells (membrane preparation)

[6] = target: T4, 5-HT1A receptor; experiment: 5-HT1A receptor functional cellular response (cAMP) assay; type: cell-based
[7] = target: T6, dopamine transporter (DAT) (Homo sapiens, UniProt Q01959); experiment: Eurofins Cerep competition binding assay at dopamine transporter; settings: for inhibition at 10 µM: read-out: DAT, percent of control-specific binding, 10 μM test ligand, [3H]BTCP, recombinant transporter from CHO cells
T6 construct: host or cells: CHO cells (membrane preparation)

[8] = target: T7, 5-HT2C receptor (Homo sapiens, UniProt P28335); experiment: Eurofins Cerep competition binding assay at 5-HT2C receptor; settings: 10 μM test ligand, [125I](±)DOI, recombinant receptor from HEK-293 cells; for inhibition at 10 µM: read-out: HT2C, percent of control-specific binding
T7 construct: host or cells: HEK-293 cells (membrane preparation)
T7 sequence (P28335 33-458): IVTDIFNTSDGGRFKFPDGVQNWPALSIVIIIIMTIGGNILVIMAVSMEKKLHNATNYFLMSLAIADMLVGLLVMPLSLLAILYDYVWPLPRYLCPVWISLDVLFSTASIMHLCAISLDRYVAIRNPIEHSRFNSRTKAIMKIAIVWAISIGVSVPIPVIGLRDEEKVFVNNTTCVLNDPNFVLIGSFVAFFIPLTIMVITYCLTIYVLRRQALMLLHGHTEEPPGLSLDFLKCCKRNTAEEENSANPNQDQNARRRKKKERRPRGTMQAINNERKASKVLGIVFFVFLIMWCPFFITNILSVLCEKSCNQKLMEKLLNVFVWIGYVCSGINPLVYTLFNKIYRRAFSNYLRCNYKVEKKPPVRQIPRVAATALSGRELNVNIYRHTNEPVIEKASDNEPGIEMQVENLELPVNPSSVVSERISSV

[9] = target: T8, MT1 receptor (Homo sapiens, UniProt P48039); experiment: Eurofins Cerep competition binding assay at MT1 receptor; settings: for inhibition at 10 µM: read-out: MT1, percent of control-specific binding, 10 μM test ligand, [125I]2-iodomelatonin, recombinant receptor from CHO cells; for MT1, percent of control-specific binding: 10 μM test ligand, [125I]2-iodomelatonin, recombinant receptor from CHO cells
T8 construct: host or cells: CHO cells (membrane preparation)

[10] = target: T9, norepinephrine transporter (NET) (Homo sapiens, UniProt P23975); experiment: Eurofins Cerep competition binding assay at norepinephrine transporter; settings: for inhibition at 10 µM: read-out: NET, percent of control-specific binding, 10 μM test ligand, [3H]nisoxetine, recombinant transporter from CHO cells
T9 construct: host or cells: CHO cells (membrane preparation)

[11] = target: T4, 5-HT1A receptor; experiment: Eurofins Cerep competition binding assay at 5-HT1A receptor; settings: 10 μM test ligand, [3H]8-OH-DPAT, recombinant receptor from HEK-293 cells; for inhibition at 10 µM: read-out: HT1A, percent of control-specific binding
[12] = target: T10, 5-HT2A receptor (Homo sapiens, UniProt P28223); experiment: biochemical; type: binding; settings: competition with 1 nM [3H]ketanserin, membranes containing 5-HT2A, SPA
T10 construct: purchased PerkinElmer ES-313-M400UA
T10 sequence (P28223 whole entry): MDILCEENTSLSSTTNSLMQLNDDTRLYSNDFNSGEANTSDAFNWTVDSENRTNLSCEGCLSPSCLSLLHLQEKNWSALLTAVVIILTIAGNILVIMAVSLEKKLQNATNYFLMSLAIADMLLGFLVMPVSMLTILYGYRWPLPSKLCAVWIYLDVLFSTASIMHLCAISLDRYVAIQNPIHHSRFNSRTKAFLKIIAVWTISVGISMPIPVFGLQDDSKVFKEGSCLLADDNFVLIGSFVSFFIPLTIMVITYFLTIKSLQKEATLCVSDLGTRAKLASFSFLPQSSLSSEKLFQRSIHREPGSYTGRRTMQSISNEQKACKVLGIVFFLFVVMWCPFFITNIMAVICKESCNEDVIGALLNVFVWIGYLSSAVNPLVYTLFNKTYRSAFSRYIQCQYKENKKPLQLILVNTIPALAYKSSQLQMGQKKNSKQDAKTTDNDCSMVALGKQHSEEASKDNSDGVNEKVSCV

T6 sequence (Q01959 whole entry): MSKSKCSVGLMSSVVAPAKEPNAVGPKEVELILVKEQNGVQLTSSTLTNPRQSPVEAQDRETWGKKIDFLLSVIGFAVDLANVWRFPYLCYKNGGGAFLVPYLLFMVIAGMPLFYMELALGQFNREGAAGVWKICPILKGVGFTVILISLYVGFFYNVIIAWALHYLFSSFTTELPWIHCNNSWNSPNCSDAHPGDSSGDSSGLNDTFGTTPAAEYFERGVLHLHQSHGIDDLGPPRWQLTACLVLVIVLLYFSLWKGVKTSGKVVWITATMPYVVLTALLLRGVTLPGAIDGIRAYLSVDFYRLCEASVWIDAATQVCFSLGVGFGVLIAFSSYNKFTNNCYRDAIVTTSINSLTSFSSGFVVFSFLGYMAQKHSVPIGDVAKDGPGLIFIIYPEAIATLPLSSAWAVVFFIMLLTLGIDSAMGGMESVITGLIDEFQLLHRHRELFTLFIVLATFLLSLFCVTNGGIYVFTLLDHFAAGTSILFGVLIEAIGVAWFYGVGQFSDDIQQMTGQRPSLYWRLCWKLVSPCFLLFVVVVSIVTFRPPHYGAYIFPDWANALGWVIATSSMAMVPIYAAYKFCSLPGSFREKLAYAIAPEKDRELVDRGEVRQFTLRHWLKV
T8 sequence (P48039 whole entry): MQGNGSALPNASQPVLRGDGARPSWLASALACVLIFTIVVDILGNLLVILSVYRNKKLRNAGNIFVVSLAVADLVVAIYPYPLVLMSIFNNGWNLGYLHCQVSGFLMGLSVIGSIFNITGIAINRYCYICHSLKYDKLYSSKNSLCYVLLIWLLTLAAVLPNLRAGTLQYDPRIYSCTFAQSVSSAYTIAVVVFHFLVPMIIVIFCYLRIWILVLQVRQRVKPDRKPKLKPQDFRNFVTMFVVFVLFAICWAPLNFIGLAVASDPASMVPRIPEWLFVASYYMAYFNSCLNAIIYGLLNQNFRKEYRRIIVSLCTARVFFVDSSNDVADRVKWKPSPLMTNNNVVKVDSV
T1 sequence (P34969 whole entry): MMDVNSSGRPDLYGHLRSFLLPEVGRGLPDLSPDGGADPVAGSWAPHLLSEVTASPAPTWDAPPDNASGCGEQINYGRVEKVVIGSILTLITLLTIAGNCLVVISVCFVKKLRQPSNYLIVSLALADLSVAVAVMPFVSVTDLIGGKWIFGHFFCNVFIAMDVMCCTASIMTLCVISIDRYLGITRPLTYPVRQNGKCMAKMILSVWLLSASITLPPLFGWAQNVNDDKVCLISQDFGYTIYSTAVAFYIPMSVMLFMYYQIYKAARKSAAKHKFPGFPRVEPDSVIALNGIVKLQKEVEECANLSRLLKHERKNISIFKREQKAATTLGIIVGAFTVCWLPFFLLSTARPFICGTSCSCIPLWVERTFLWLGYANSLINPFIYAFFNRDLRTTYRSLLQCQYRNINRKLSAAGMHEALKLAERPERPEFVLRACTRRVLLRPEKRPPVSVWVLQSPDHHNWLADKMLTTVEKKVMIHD
T9 sequence (P23975 whole entry): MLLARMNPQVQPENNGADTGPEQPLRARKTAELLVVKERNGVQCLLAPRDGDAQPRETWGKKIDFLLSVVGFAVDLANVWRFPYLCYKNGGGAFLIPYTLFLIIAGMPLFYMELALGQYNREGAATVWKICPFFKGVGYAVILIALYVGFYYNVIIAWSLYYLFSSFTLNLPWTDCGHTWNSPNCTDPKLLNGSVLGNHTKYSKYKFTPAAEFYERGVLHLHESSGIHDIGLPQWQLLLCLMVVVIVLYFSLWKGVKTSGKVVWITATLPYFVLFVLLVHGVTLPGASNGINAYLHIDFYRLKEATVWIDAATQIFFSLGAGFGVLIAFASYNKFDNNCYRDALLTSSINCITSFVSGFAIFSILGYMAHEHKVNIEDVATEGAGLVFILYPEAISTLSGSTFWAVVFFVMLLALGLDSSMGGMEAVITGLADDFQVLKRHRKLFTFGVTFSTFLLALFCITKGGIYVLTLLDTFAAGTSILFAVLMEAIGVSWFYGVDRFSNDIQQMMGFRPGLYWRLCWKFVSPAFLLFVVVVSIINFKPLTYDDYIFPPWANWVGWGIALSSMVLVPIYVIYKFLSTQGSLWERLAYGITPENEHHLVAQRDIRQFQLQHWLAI
T2 sequence (P31645 whole entry): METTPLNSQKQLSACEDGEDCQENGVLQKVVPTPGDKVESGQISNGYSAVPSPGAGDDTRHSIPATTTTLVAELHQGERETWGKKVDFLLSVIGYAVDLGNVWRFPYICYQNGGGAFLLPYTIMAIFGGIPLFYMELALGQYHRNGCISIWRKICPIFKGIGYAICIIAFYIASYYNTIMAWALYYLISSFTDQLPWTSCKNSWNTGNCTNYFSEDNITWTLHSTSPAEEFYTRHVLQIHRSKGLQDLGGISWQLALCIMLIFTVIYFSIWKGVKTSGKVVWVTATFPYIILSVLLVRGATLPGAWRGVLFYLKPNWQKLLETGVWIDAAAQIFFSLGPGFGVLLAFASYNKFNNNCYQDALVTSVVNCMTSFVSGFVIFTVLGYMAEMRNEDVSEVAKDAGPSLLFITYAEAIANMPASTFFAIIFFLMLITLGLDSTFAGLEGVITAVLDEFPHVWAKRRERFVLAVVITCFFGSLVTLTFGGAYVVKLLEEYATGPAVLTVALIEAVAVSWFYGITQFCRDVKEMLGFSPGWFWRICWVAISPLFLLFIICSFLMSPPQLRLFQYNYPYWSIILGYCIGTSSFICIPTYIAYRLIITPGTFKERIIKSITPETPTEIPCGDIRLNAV
T5 sequence (P41595 whole entry): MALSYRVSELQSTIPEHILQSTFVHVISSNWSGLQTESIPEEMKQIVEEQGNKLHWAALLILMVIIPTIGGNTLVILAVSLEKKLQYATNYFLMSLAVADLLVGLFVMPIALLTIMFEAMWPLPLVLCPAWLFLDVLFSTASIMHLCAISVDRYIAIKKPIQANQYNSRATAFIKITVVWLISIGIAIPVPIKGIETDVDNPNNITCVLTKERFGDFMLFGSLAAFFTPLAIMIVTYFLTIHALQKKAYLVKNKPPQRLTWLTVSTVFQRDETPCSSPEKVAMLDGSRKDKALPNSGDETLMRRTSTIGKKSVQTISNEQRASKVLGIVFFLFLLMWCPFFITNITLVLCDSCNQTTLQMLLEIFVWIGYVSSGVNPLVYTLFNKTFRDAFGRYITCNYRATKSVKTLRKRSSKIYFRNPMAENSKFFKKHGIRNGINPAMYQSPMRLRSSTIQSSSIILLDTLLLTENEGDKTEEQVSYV

Row | Compound | inhibition at 10 µM [1] [%] | inhibition at 10 µM [2] [%] | inhibition at 10 µM [3] [%] | Ki [4] [µM] | inhibition at 10 µM [5] [%] | EC50 [6] [µM] | inhibition at 10 µM [7] [%] | inhibition at 10 µM [8] [%] | inhibition at 10 µM [9] [%] | inhibition at 10 µM [10] [%] | inhibition at 10 µM [11] [%] | Ki [12] [µM] | also measured
1 | CC(C(=O)c1ccc2c(c1)OCO2)N(C)Cc1ccccc1 (racemic) [A(III)] | 0 | 5 | 42 | 49 | 32 | > 1000 | 74 | 7 | 77 | 38 | 4 | 53 | 
2 | CNC(C)Cc1ccc2c(c1)OCO2 (centres unmarked) [MDMA] |  |  |  |  |  |  |  |  |  |  |  |  | HT7, percent of control-specific binding [1]: 58%; SERT, percent of control-specific binding ([2]; 10 µM): 46%; α-2A, percent of control-specific binding [3]: 27%; HT2B, percent of control-specific binding [5]: 85%; EC50 ([6]; CHO-K1/5-HT1A/Gα15 cells stimulated with 4 μM forskolin, reduction of intracellular cAMP, read-out: 5-HT1A, EC50): > 1000 µM; DAT, percent of control-specific binding ([7]; 10 μM test ligand, [3H]BTCP, recombinant transporter from CHO cells): 28%; HT2C, percent of control-specific binding [8]: 96%; MT1, percent of control-specific binding [9]: 1%; NET, percent of control-specific binding ([10]; 10 μM test ligand, [3H]nisoxetine, recombinant transporter from CHO cells): 3%; HT1A, percent of control-specific binding [11]: 68%
3 | CC(C(F)c1ccc2c(c1)OCO2)N(C)Cc1ccccc1 (single isomer, unassigned) [D(III) as diast. (vii)] | 60 | 35 | 86 | 11.3 | 29 | 156 | 69 | 36 | 23 | 50 | 36 |  | 
4 | CCCOc1c(OC)cc(CCN)cc1OC [proscaline] | 5 | 23 | 40 | 9.4 | 85 |  | -2 | 97 | 3 | -9 | 71 | 82 | 
5 | N[C@@H](Cc1c[nH]c2ccccc12)C(=O)O [tryptophan] | 11 | 1 | -4 | > 1000 | 0 |  | 1 | 25 | -2 | 1 | 6 | > 1000 | 
6 | CC(C(O)c1ccc2c(c1)OCO2)N(C)Cc1ccccc1 (single isomer, unassigned) [B(III) as diast. (iii)] |  | 58 |  | 110 |  |  | 75 |  |  | 42 |  | 44 | HT7, percent of control-specific binding ([1]; 10 µM): 10%; α-2A, percent of control-specific binding ([3]; 10 µM): 7%; HT2B, percent of control-specific binding ([5]; 10 µM): 3%; HT2C, percent of control-specific binding ([8]; 10 µM): 5%; MT1, percent of control-specific binding ([9]; 10 µM): 0%; HT1A, percent of control-specific binding ([11]; 10 µM): 0%
7 | CNC(C)C(F)c1ccc2c(c1)OCO2 (single isomer, unassigned) [D(II) as diast. (vi)] |  |  |  | 6 |  | > 1000 |  |  |  |  |  |  | 
8 | COc1cc(CCN)cc(OC)c1OC [mescaline, 3,4,5 trimethoxyphenethylamine] | 38 | -6 | 57 | 8.5 | 80 | > 1000 | -1 | 95 | 6 | -9 | 65 |  | 
9 | C[C@@H]([C@H](F)c1ccc2c(c1)OCO2)N(C)Cc1ccccc1 [D(III) as diast. (vii)] |  |  |  | 11.3 |  | 156 |  |  |  |  |  |  | 
10 | CC(C(=O)c1ccc2c(c1)OCO2)N1CCCC1 (racemic) [A(I)] | 3 | 25 | 24 | 2 | 19 |  | 95 | 45 | 5 | 59 | 73 | 131 | 
